{"source": "patent US20170197996A1", "about": "“Cholinesterase Inhibitors” (priority 2012, published 2017)", "test_system": "acetylcholinesterase", "assay_type": "in vivo, rat", "conditions": "Trials C, D; 0.030 mg/Kg dose 10 min prior to tracer; FIG. 11, FIG. 12 vs FIG. 8", "data": [{"molecule": "CCOP(=O)(OCC)Oc1ccc([N+](=O)[O-])cc1", "note": "[paraoxon]", "values": [{"measurement": "reduction of tracer [^18F]-6 SUV radioactivity signals across all brain ROIs", "value": "significant reduction of SUV radioactivity signals"}]}]}
